Laboratory results published in patent US4016159A, “Acylamino-cephem-carboxylic acids containing an amidino or guanidino group in the molecule” (Hoechst Aktiengesellschaft, priority 1973, dated 1977).
≈ marks a conversion by molar mass, not a printed value. Like-named read-outs stand apart in the source and are kept apart here.

Legend:
Type in all cases: cell-based
[1] = system: Staphylococcus aureus SG 511; test: Minimum inhibition concentration (MIC), Table 5; conditions: Staphylococcus aureus
Text: (§1) Minimum inhibition concentration (MIC) in γ/ml
Germ: Staphylococcus aureus SG 511

[2] = system: Streptococcus D; test: Minimum inhibition concentration (MIC), Table 4; conditions: Streptococcus, read-out: Minimum inhibition concentration (MIC)
Text: as §1

[3] = system: Streptococcus pyogenes A; test: Minimum inhibition concentration (MIC), Table 3; conditions: read-out: Minimum inhibition concentration MIC
Text: Minimum inhibition concentration MIC in γ/ml
Germ: Streptococcus pyogenes A

[4] = system: Proteus mirabilis; test: Minimum inhibition concentration (MIC), Table 2; conditions: read-out: Minimum inhibition concentration (MIC)
Text: Minimum inhibition concentration (MIC) in /ml

[5] = system: Staphylococcus aureus 285; test: Minimum inhibition concentration (MIC), Table 1; conditions: Staphylococcus aureus, 285, Germ: Staphylococcus aureus 285; read-out: Minimum inhibition concentration (MIC)
Text: as §1
Germ: Staphylococcus aureus 285

[6] = SG511, read-out: Minimum inhibition concentration (MIC)
[7] = SG511, Germ: Staphylococcus aureus SG 511, read-out: Minimum inhibition concentration (MIC)

Row | Structure (SMILES) | MIC [1, 6] [µg/mL] | MIC [2] [µg/mL] | MIC ([3]; Streptococcus pyogenes) [µg/mL] | MIC ([4]; Proteus mirabilis) [µg/mL] | MIC [1, 7] [µg/mL] | MIC ([3]; Germ: Streptococcus pyogenes A) [µg/mL] | MIC ([4]; Germ: Proteus mirabilis) [µg/mL] | MIC ([2]; Germ: Streptococcus D) [µg/mL] | MIC [5] [µg/mL]
1 | CC1=C(C(=O)O)N2C(=O)[C@@H](NC(=O)[C@H](N)c3ccccc3)[C@H]2SC1 [Cephalexin, reference compound] | 1.25 (≈ 3.6 µM) | 100 (≈ 288 µM) | 0.156 (≈ 0.449 µM) | 25 (≈ 72 µM) | – | – | – | – | –
2 | CC(=O)OCC1=C(C(=O)O)N2C(=O)[C@@H](NC(=O)Cc3cccs3)[C@H]2SC1 [Cephalotin-Na, reference compound] | 0.13 (≈ 0.328 µM) | 78.5 (≈ 198 µM) | 0.05 (≈ 0.126 µM) | 12.5 (≈ 31.5 µM) | – | – | – | – | –
3 | Cc1nnc(SCC2=C(C(=O)O)N3C(=O)[C@@H](NC(=O)Cn4cnnn4)[C@H]3SC2)s1 [Cephazolin-Na, reference compound] | – | – | – | – | 0.25 (≈ 0.55 µM) | 0.03 (≈ 0.066 µM) | 25 (≈ 55 µM) | – | –
4 | N=C(N)c1ccc(CC(=O)NC2C(=O)N3C(C(=O)O)=C(CSc4nncs4)CSC23)cc1 (stereo not shown) [Example 1, 3-[(1,3,4-thiadiazole-2-yl)-thiomethyl]-7-(4-amidino-phenylacetamido)-Δ3-cephem-4-carboxylic acid] | – | – | – | – | 0.0196 to 0.0391 (≈ 0.04 to 0.0797 µM) | 0.000391 to 0.0078 (≈ 0.000797 to 0.0159 µM) | 3.1 to 12.5 (≈ 6.32 to 25.5 µM) | 10 to 50 (≈ 20.4 to 102 µM) | 0.156 to 0.391 (≈ 0.318 to 0.797 µM)
5 | N=C(N)c1ccc(CC(=O)NC2C(=O)N3C(C(=O)O)=C(CSc4nncs4)CSC23)s1 (stereo not shown) [Example 3, 3-[(1,3,4-thiadiazole-2-yl)-thiomethyl]-7-(5-amidinothienyl-acetamido)-Δ3-cephem-4-ccarboxylic acid] | – | – | – | – | 0.0625 to 0.078 (≈ 0.126 to 0.157 µM) | 0.008 to 0.0156 (≈ 0.0161 to 0.0314 µM) | 3.1 to 12.5 (≈ 6.24 to 25.2 µM) | 10 to 50 (≈ 20.1 to 101 µM) | 0.156 to 0.391 (≈ 0.314 to 0.787 µM)
6 | N=C(N)c1ccc(CC(=O)NC2C(=O)N3C(C(=O)O)=C(CSc4nccs4)CSC23)cc1 (stereo not shown) [Example 4, 3-[(thiazole-2-yl)-thiomethyl]-7-(4-amidino-phenylacetamido)-Δ3-cephem-4-carboxylic acid] | – | – | – | – | 0.0196 to 0.0391 (≈ 0.04 to 0.0799 µM) | 0.000391 to 0.0078 (≈ 0.000799 to 0.0159 µM) | 25 (≈ 51.1 µM) | 10 to 50 (≈ 20.4 to 102 µM) | 0.156 to 0.391 (≈ 0.319 to 0.799 µM)
7 | Cc1nnc(SCC2=C(C(=O)O)N3C(=O)C(NC(=O)Cc4ccc(NC(=N)N)cc4)C3SC2)s1 (stereo not shown) [Example 6, 3-[(5-methyl-1,3,4-thiadiazole-2-yl)-thiomethyl]-7-(4-guanidino-phenylacetamido)-Δ3-cephem-4-carboxylic acid] | – | – | – | – | 0.0196 to 0.0391 (≈ 0.0377 to 0.0752 µM) | 0.008 to 0.0156 (≈ 0.0154 to 0.03 µM) | 3.1 to 12.5 (≈ 5.97 to 24.1 µM) | 10 to 50 (≈ 19.2 to 96.2 µM) | 0.156 to 0.391 (≈ 0.3 to 0.752 µM)
8 | N=C(N)Nc1ccc(CC(=O)NC2C(=O)N3C(C(=O)O)=C(CSc4nncs4)CSC23)cc1 (stereo not shown) [Example 9, 3-[(1,3,4-thiadiazole-2-yl)-thiomethyl]-7-(4-guanidino-phenylacetamido)-Δ3-cephem-4-carboxylic acid] | – | – | – | – | 0.0196 to 0.0391 (≈ 0.0388 to 0.0773 µM) | 0.000391 to 0.0078 (≈ 0.000773 to 0.0154 µM) | 25 (≈ 49.4 µM) | 10 to 50 (≈ 19.8 to 98.9 µM) | 0.5 to 1.25 (≈ 0.989 to 2.47 µM)
9 | Cc1nnc(SCC2=C(C(=O)O)N3C(=O)C(NC(=O)Cc4ccc(C5=NCCCN5)cc4)C3SC2)s1 (stereo not shown) [Example 11, 3-[(5-methyl-1,3,4-thiadiazole-2-yl)-thiomethyl]-7-[4-(1,4,5,6-tetrahydro-pyrimide-2-yl)-phenylacetamido]-Δ 3-cephem-4-carboxylic acid] | – | – | – | – | – | 0.008 to 0.0156 (≈ 0.0147 to 0.0286 µM) | 3.1 to 12.5 (≈ 5.69 to 22.9 µM) | 10 to 50 (≈ 18.4 to 91.8 µM) | 0.5 to 1.25 (≈ 0.918 to 2.29 µM)
10 | Cc1nnc(SCC2=C(C(=O)O)N3C(=O)C(NC(=O)Cc4ccc(C5=NCCN5)cc4)C3SC2)s1 (stereo not shown) [Example 12, 3-[(5-methyl-1,3,4-thiadiazole-2-yl)-thiomethyl]-7-[4-(imidazoline-2-yl)-phenylacetamido]-Δ 3-cephem-4-carboxylic acid] | – | – | – | – | – | 0.008 to 0.0156 (≈ 0.0151 to 0.0294 µM) | 3.1 to 12.5 (≈ 5.84 to 23.6 µM) | 0.196 to 6.25 (≈ 0.369 to 11.8 µM) | 0.156 to 0.391 (≈ 0.294 to 0.737 µM)
11 | O=C(Cc1ccc(C2=NCCCN2)cc1)NC1C(=O)N2C(C(=O)O)=C(CSc3nncs3)CSC12 (stereo not shown) [Example 19, 3-[(1,3,4-thiadiazole-2-yl)-thiomethyl]-7-[4-(1,4,5,6-tetrahydropyrimide-2-yl)-phenylacetamido]-Δ 3-cephem-4-carboxylic acid] | – | – | – | – | – | 0.000391 to 0.0078 (≈ 0.000737 to 0.0147 µM) | 3.1 to 12.5 (≈ 5.84 to 23.6 µM) | 10 to 50 (≈ 18.8 to 94.2 µM) | 0.5 to 1.25 (≈ 0.942 to 2.36 µM)
12 | CCCc1nnc(SCC2=C(C(=O)O)N3C(=O)C(NC(=O)Cc4ccc(C(=N)N)cc4)C3SC2)o1 (stereo not shown) [Example 44, 3-[(5-n-propyl-1,3,4-oxadiazole-2-yl)-thiomethyl]-7-(4-amidino-phenylacetamido)-Δ 3-cephem-4-carboxylic acid] | – | – | – | – | – | 0.000391 to 0.0078 (≈ 0.000757 to 0.0151 µM) | 3.1 to 12.5 (≈ 6 to 24.2 µM) | 10 to 50 (≈ 19.4 to 96.8 µM) | 0.156 to 0.391 (≈ 0.302 to 0.757 µM)
